Laboratory results reported in US12077503B2, “Substituted cyclic amides and their use as herbicides” (FMC CORPORATION, priority 2015, dated 2024).

Experiments:
Format in all cases: in vivo
[1] = system: blackgrass (Alopecurus myosuroides); experiment: Test A postemergence; conditions: Alopecurus myosuroides, post-emergence, 240 h, read-out: Plant response rating, Blackgrass; for pest or weed control at 125 g/ha: 125 g ai/ha, Postemergence, visual injury after approximately 10 d, 0 to 100 scale where 0 is no effect and 100 is complete control; for pest or weed control at 500 g/ha: 500 g ai/ha, postemergence, visual injury, 0 to 100 scale (0 no effect, 100 complete control), approx. 10 d
How it was run: (§1)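 Visual injury scores from 0, no effect, to 100, complete control, were assigned versus untreated controls roughly 10 d after treatment in the greenhouse. Test chemicals, formulated with surfactant in a non-phytotoxic solvent, were applied to planted seeds as a preemergence soil spray or postemergence to one- to two-leaf plants 2 to 10 cm tall, in loam–sand soil.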

[2] = system: ryegrass, Italian (Italian ryegrass, Lolium multiflorum); experiment: Test A postemergence; conditions: Lolium multiflorum, post-emergence, 240 h, postemergence, approx. 10 d; for pest or weed control at 125 g/ha: 125 g ai/ha, visual injury on 0 to 100 scale (0 no effect, 100 complete control), read-out: Ryegrass, Italian plant response rating; for pest or weed control at 500 g/ha: 500 g ai/ha, visual injury, 0 to 100 scale (0 no effect, 100 complete control), read-out: Plant response rating, Ryegrass, Italian
How it was run: as §1

[3] = system: wheat (Triticum aestivum); experiment: Test A postemergence; conditions: Triticum aestivum, post-emergence, 240 h, postemergence, approx. 10 d; for plant injury at 125 g/ha: 125 g ai/ha, visual injury on 0 to 100 scale (0 no effect, 100 complete control), read-out: Wheat plant response rating; for plant injury at 500 g/ha: 500 g ai/ha, visual injury, 0 to 100 scale (0 no effect, 100 complete control), read-out: Plant response rating, Wheat
How it was run: as §1

[4] = system: pigweed (Amaranthus retroflexus); experiment: Test A postemergence; conditions: Amaranthus retroflexus, post-emergence, 240 h, postemergence, approx. 10 d; for pest or weed control at 125 g/ha: 125 g ai/ha, visual injury on 0 to 100 scale (0 no effect, 100 complete control), read-out: Pigweed plant response rating; for pest or weed control at 500 g/ha: 500 g ai/ha, visual injury, 0 to 100 scale (0 no effect, 100 complete control), read-out: Plant response rating, Pigweed
How it was run: as §1

[5] = system: Galium (catchweed bedstraw, Galium aparine); experiment: Test A postemergence; conditions: Galium, post-emergence, 240 h, postemergence, approx. 10 d; for pest or weed control at 125 g/ha: 125 g ai/ha, visual injury on 0 to 100 scale (0 no effect, 100 complete control), read-out: Galium plant response rating; for pest or weed control at 500 g/ha: 500 g ai/ha, visual injury, 0 to 100 scale (0 no effect, 100 complete control), read-out: Plant response rating, Galium
How it was run: as §1

[6] = system: Kochia (Kochia scoparia); experiment: Test A postemergence; conditions: Bassia scoparia, post-emergence, 240 h, postemergence, approx. 10 d; for pest or weed control at 125 g/ha: 125 g ai/ha, visual injury on 0 to 100 scale (0 no effect, 100 complete control), read-out: Kochia plant response rating; for pest or weed control at 500 g/ha: 500 g ai/ha, visual injury, 0 to 100 scale (0 no effect, 100 complete control), read-out: Plant response rating, Kochia
How it was run: as §1

[7] = system: giant foxtail (Setaria faberii); experiment: Test A postemergence; conditions: Setaria faberi, post-emergence, 240 h, postemergence, approx. 10 d; for pest or weed control at 125 g/ha: 125 g ai/ha, visual injury on 0 to 100 scale (0 no effect, 100 complete control), read-out: Foxtail, Giant plant response rating; for pest or weed control at 500 g/ha: 500 g ai/ha, visual injury, 0 to 100 scale (0 no effect, 100 complete control), read-out: Plant response rating, Foxtail, Giant
How it was run: as §1

[8] = system: barnyardgrass (Echinochloa crus-galli); experiment: Test A postemergence; conditions: Echinochloa crus-galli, post-emergence, 240 h, read-out: Plant response rating, Barnyardgrass; for pest or weed control at 125 g/ha: 125 g ai/ha, Postemergence, visual injury after approximately 10 d, 0 to 100 scale where 0 is no effect and 100 is complete control; for pest or weed control at 500 g/ha: 500 g ai/ha, postemergence, visual injury, 0 to 100 scale (0 no effect, 100 complete control), approx. 10 d
How it was run: as §1

[9] = system: corn (Zea mays); experiment: Test A postemergence; conditions: Zea mays, post-emergence, 240 h; for Corn plant response rating (crop injury, 0 = no effect, 100 = complete kill) at 125 g/ha: 125 g ai/ha, Postemergence, visual injury after approximately 10 d, 0 to 100 scale where 0 is no effect and 100 is complete control; for Corn plant response rating (crop injury, 0 = no effect, 100 = complete kill) at 500 g/ha: 500 g ai/ha, postemergence, visual injury, 0 to 100 scale (0 no effect, 100 complete control), approx. 10 d
How it was run: as §1

[10] = system: ragweed (common ragweed, Ambrosia elatior); experiment: Test A preemergence; conditions: Ambrosia artemisiifolia, pre-emergence, 240 h; for pest or weed control at 125 g/ha: 125 g ai/ha, Preemergence, visual injury rating after approximately 10 d, read-out: Ragweed plant response rating (0 to 100 scale, 0 is no effect, 100 is complete control); for pest or weed control at 500 g/ha: 500 g ai/ha, preemergence, visual injury rating about 10 d after treatment, 0 to 100 scale (0 no effect, 100 complete control), read-out: Ragweed plant response rating
How it was run: as §1

[11] = system: ryegrass, Italian (Italian ryegrass, Lolium multiflorum); experiment: Test A preemergence; conditions: Lolium multiflorum, pre-emergence, 240 h; for pest or weed control at 125 g/ha: 125 g ai/ha, Preemergence, visual injury rating after approximately 10 d, read-out: Ryegrass, Italian plant response rating (0 to 100 scale, 0 is no effect, 100 is complete control); for pest or weed control at 500 g/ha: 500 g ai/ha, preemergence, visual injury rating about 10 d after treatment, 0 to 100 scale (0 no effect, 100 complete control), read-out: Ryegrass, Italian plant response rating
How it was run: as §1

[12] = system: pigweed (Amaranthus retroflexus); experiment: Test A preemergence; conditions: Amaranthus retroflexus, pre-emergence, 240 h; for pest or weed control at 125 g/ha: 125 g ai/ha, Preemergence, visual injury rating after approximately 10 d, read-out: Pigweed plant response rating (0 to 100 scale, 0 is no effect, 100 is complete control); for pest or weed control at 500 g/ha: 500 g ai/ha, preemergence, visual injury rating about 10 d after treatment, 0 to 100 scale (0 no effect, 100 complete control), read-out: Pigweed plant response rating
[13] = system: Kochia (Kochia scoparia); experiment: Test A preemergence; conditions: Bassia scoparia, pre-emergence, 240 h; for pest or weed control at 125 g/ha: 125 g ai/ha, Preemergence, visual injury rating after approximately 10 d, read-out: Kochia plant response rating (0 to 100 scale, 0 is no effect, 100 is complete control); for pest or weed control at 500 g/ha: 500 g ai/ha, preemergence, visual injury rating about 10 d after treatment, 0 to 100 scale (0 no effect, 100 complete control), read-out: Kochia plant response rating
How it was run: as §1

[14] = system: giant foxtail (Setaria faberii); experiment: Test A preemergence; conditions: Setaria faberi, pre-emergence, 240 h; for pest or weed control at 125 g/ha: 125 g ai/ha, Preemergence, visual injury rating after approximately 10 d, read-out: Foxtail, Giant plant response rating (0 to 100 scale, 0 is no effect, 100 is complete control); for pest or weed control at 500 g/ha: 500 g ai/ha, preemergence, visual injury rating about 10 d after treatment, 0 to 100 scale (0 no effect, 100 complete control), read-out: Foxtail, Giant plant response rating
How it was run: as §1

[15] = system: barnyardgrass (Echinochloa crus-galli); experiment: Test A preemergence; conditions: Echinochloa crus-galli, pre-emergence, 240 h; for pest or weed control at 125 g/ha: 125 g ai/ha, Preemergence, visual injury rating after approximately 10 d, read-out: Barnyardgrass plant response rating (0 to 100 scale, 0 is no effect, 100 is complete control); for pest or weed control at 500 g/ha: 500 g ai/ha, preemergence, visual injury rating about 10 d after treatment, 0 to 100 scale (0 no effect, 100 complete control), read-out: Barnyardgrass plant response rating
How it was run: as §1

SMILES	pest or weed control at 125 g/ha [1] [%]	pest or weed control at 500 g/ha [1] [%]	pest or weed control at 125 g/ha [2] [%]	pest or weed control at 500 g/ha [2] [%]	plant injury at 125 g/ha [3] [%]	plant injury at 500 g/ha [3] [%]	pest or weed control at 125 g/ha [4] [%]	pest or weed control at 500 g/ha [4] [%]	pest or weed control at 125 g/ha [5] [%]	pest or weed control at 500 g/ha [5] [%]	pest or weed control at 125 g/ha [6] [%]	pest or weed control at 500 g/ha [6] [%]	pest or weed control at 125 g/ha [7] [%]	pest or weed control at 500 g/ha [7] [%]	pest or weed control at 125 g/ha [8] [%]	pest or weed control at 500 g/ha [8] [%]	Corn plant response rating (crop injury, 0 = no effect, 100 = complete kill) at 125 g/ha [9] [%]	Corn plant response rating (crop injury, 0 = no effect, 100 = complete kill) at 500 g/ha [9] [%]	pest or weed control at 125 g/ha [10] [%]	pest or weed control at 500 g/ha [10] [%]	also measured
CC(C)COc1cccc([C@H]2CN(C)C(=O)[C@@H]2C(=O)Nc2ccc(F)cc2F)c1 [Compound 1030]	0	60	0	0	30	60	0	0	40	60	0	0	70	90	70	90	20	50	0	0	pest or weed control at 125 g/ha [11]: 70%; pest or weed control at 500 g/ha [11]: 70%; pest or weed control at 125 g/ha [12]: 0%; pest or weed control at 500 g/ha [12]: 0%; pest or weed control at 125 g/ha [13]: 0%; pest or weed control at 500 g/ha [13]: 70%; pest or weed control at 125 g/ha [14]: 90%; pest or weed control at 500 g/ha [14]: 90%; pest or weed control at 125 g/ha [15]: 70%; pest or weed control at 500 g/ha [15]: 90%
O=C(Nc1ccccc1F)[C@H]1C(=O)N(C2CC2)CC[C@@H]1c1ccccc1 [Compound 1031]	0	0	0	0	0	0	0	0	0	0	0	0	0	0	0	0	0	0	0	0	pest or weed control at 125 g/ha [11]: 0%; pest or weed control at 500 g/ha [11]: 0%; pest or weed control at 125 g/ha [12]: 0%; pest or weed control at 500 g/ha [12]: 0%; pest or weed control at 125 g/ha [13]: 0%; pest or weed control at 500 g/ha [13]: 0%; pest or weed control at 125 g/ha [14]: 0%; pest or weed control at 500 g/ha [14]: 0%; pest or weed control at 125 g/ha [15]: 0%; pest or weed control at 500 g/ha [15]: 0%
Cc1ccc([C@H]2CNC(=O)[C@@H]2C(=O)Nc2ccccc2F)cc1C [Compound 1033]	0	40	0	20	0	0	0	0	40	60	0	0	30	80	90	90	0	40	0	10	pest or weed control at 125 g/ha [11]: 0%; pest or weed control at 500 g/ha [11]: 50%; pest or weed control at 125 g/ha [12]: 0%; pest or weed control at 500 g/ha [12]: 0%; pest or weed control at 125 g/ha [13]: 0%; pest or weed control at 500 g/ha [13]: 60%; pest or weed control at 125 g/ha [14]: 70%; pest or weed control at 500 g/ha [14]: 90%; pest or weed control at 125 g/ha [15]: 90%; pest or weed control at 500 g/ha [15]: 90%
